Laboratory results: article PMC5641330, “Prediction of a Therapeutic Dose for Buagafuran, a Potent Anxiolytic Agent by Physiologically Based Pharmacokinetic/Pharmacodynamic Modeling Starting from Pharmacokinetics in Rats and Human” (Frontiers in Pharmacology, 2017)

Columns and labels:
[1] = Plasma protein binding by equilibrium dialysis, human plasma; format: in vitro ADME; settings: 0.5–2 μg/mL
Description: The plasma protein binding of buagafuran (0.5–2 μg/mL) was investigated by equilibrium dialysis. Aliquots (0.5 mL) of plasma were dialyzed against 10 mL phosphate buffered saline containing a ^3H-buagafuran tracer over a membrane with an 8,000- to 12,000-dalton molecular weight cutoff. Dialysis experiment was performed for 60 h at 4 °C. After the dialysis period, 100 μL of the PBS fraction (containing unbound buagafuran) and 100 μL of the plasma fraction (containing both bound and unbound drug) was taken for liquid scintillation counting. The ratio of buagafuran concentration in buffer to that in plasma was applied to calculate the unbound fraction (Fu).

[2] = Biopharmaceutical classification system (BCS); format: physicochemical
male Wistar rats = test: Elevated plus-maze (EPM) test in the rat, with sigmoid Emax PK/PD fit; format: in vivo
Description: Anxiolytic activity of buagafuran was evaluated by EPM model. The rat EPM consisted of two open arms (50 cm × 10 cm) and two closed arms (50 cm × 10 cm × 40 cm) extending from the central platform (10 cm × 10 cm), the maze rising from the floor by 50 cm.
Male Wistar rats, weighing between 130 and 160 g, were handled daily for 1 week prior to the study and were fasted for 12 h before experiment. Group I: the treated rats received buagafuran formulation of PVP (2, 4, and 8 mg/kg) via the oral route, while the rats that served as control group received vehicle (PVP). Experiments were carried out 10 min after oral administration of drugs or vehicles. Group II: Rats were evaluated 5, 10, 15, 30, 60, 90, 120, and 180 min after oral treatment with buagafuran (4 mg/kg). During a typical test, place each rat on the center of the maze, facing an open arm, and allowing free exploration of the maze for a 5 min test period. An entry was defined by all four paws enter an arm. The total number of arm entries, and the time spent in each type of arm was recorded. The maze was wiped down with 10% ethanol between tests. All experiments were carried out between 9:00 am and 12:00 am.
The difference between control and treatment group was statistically analyzed by one-way analyses of variance (ANOVA). Differences with probabilities of less than 5% (p < 0.05) were regarded as significant.
The PD Plus module implemented in GastroPlus was used. Based on the parameters (R^2 and Akaike criterion) in PK-PD model simulation, the best-fitting model, Sigmoid Emax model, was employed to fit therapeutic PD response (time spent on the open arms) with the brain concentration profile of buagafuran in rat using the equation 4:
(4) E = E0+ EmaxC^γ/EC50 γ+C^γ.
where C is in ng/mL, E0 is the time spent by the control group in the open arms which is equal to 0.63, Emax is the maximum response, EC50 is the concentration of a compound at which 50% of its maximum response is observed and γ is the Hill coefficient. The set of parameter values for the model was determined by GastroPlus software. GastroPlus simulation was then used to predict the brain concentration profile and PD response profile of buagafuran in human.

[3] = PBPK simulation in rat (GastroPlus)
Excerpt: GastroPlus^TM software (version 8.5) was used to perform all simulations, (Simulations Plus, Inc., Lancaster, CA, United States). The absorption of oral formulations from the GI tract was modeled by the advanced compartmental absorption and transit (ACAT^TM) model implemented in GastroPlus ([Agoram et al., 2001]; [Kuentz et al., 2006]; [Huang et al., 2009]; [Zhang et al., 2011]). Input parameters in the ACAT model include three groups: formulation properties, physicochemical properties and pharmacokinetic parameters. […] The immediate release (IR) suspension for rat and IR capsule for human were selected for simulation of buagafuran in GastroPlus^TM. The ACAT model consists of nine compartments that mimic the GI tract. Each GI tract has an associated ASF. ASF is the multiplier used to scale the permeability to account for different surface-to-volume ratios, pH effects, transporter differences, and other factors that affect absorption between different compartments ([Zhang et al., 2011]). Four coefficients C1–C4 are used to calculate ASF. And there are eight basic ASF models in version 8.5. […]
The pharmacokinetic parameters of unbound fraction in plasma (FUp) were experimentally measured values. […]

Compound: CCCCC1=CCC[C@@]2(C)CC[C@@H]3C[C@]12OC3(C)C [buagafuran]
- concentration dependence of plasma protein binding ([1]; human plasma): no evident concentration-dependent binding
- fraction unbound at 60 h ([1]; human, plasma, equilibrium dialysis, read-out: Fup human (unbound fraction in human plasma)): 0.04
- biopharmaceutical classification system (BCS) class [2]: Class II
- time within which activity decreased (male Wistar rats; rat EPM, oral 4 mg/kg): ≤ 2 h
- time of maximal level of activity (male Wistar rats; rat EPM, oral 4 mg/kg, p < 0.01 versus vehicle): 15 min
- onset of action (male Wistar rats; rat EPM, oral 4 mg/kg, p < 0.05 versus vehicle): ≤ 10 min
- total time spent in open arms (male Wistar rats; rat EPM, oral 2, 4 and 8 mg/kg, dose-dependent, inverted U-shaped): significantly prolonged
- dose of maximum effect (male Wistar rats; rat EPM, oral, p < 0.05 versus vehicle): 4 mg/kg
- EC50 (male Wistar rats; time spent in open arms vs rat brain concentration, direct sigmoidal Emax model): 0.0106 µg/mL
- Kp ([3]; brain, oral, optimized by parameter sensitivity analysis, also used for human simulation): 6.7
- input (refined) CLhep ([3]; optimized by comparing fitting with observed PK data): 36.8 mL/min/kg
